Source: patent US7011972B2, “Fusion polypeptide comprising two ligand binding domains” (The Scripps Research Institute, priority 2000, dated 2006)
“Also recorded” adds a separate entry of the source.

Columns and labels:
hPR (aa645-914) LBD = molecular target: T1, hPR (aa645-914) LBD (Homo sapiens, UniProt P06401); assay: Ligand crossreactivity on PR fusion, 10×C7-TATA-luc reporter; assay type: cell-based; settings: PR LBD fusion proteins
T1 construct: The human PR truncated LBD (aa645-914) was amplified from PAPCMVGL914VPc′-SV; expressed in transfected cells; host or cells: HeLa cells, effector plasmid in pcDNA3.1(+)Zeo
T1 sequence (P06401 645-914): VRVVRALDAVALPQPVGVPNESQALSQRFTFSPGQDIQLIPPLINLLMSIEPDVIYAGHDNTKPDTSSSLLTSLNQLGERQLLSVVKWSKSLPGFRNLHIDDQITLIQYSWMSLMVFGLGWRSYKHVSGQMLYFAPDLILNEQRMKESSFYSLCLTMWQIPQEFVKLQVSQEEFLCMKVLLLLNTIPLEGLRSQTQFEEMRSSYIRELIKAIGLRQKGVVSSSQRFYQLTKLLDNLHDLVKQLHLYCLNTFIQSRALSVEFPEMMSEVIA
Protocol: (§1) Luciferase and βP-gal reporter assays.
The chimeric transcriptional regulators were then tested for their ability to regulate the 10×C7-TATA-luc reporter plasmid in a hormone dependent manner. 10×C7-TATA-luc contains ten C7 binding sites [5′-GCG TGG GCG-3′] spaced by 5 nucleotides, and a TATA box, upstream of the firefly luciferase coding region. […] RU486 stimulated the activity of VP16-C7-PR 26-fold, while 4-OHT led to a 43-fold activation of VP16-C7-ER. […] The presence of a NLS in either position was not only not required, but even undesirable, since it led to an increased basal (i.e. hormone-independent) activity of the fusion constructs, presumably through increased nuclear localization. Thus, the hPR (aa645-914) and mER (aa281-599, G525R) LBDs are able to confer hormone-dependence onto the zinc finger protein C7.

[1] = test system: 10×B3-TATA-luc reporter (with B3-PR-VP16 and N1-ER-VP64) in HeLa cells; assay: Dual reporter assay, luciferase; assay type: cell-based; settings: HeLa cells expressing B3-PR-VP16 and N1-ER-VP64
Description: (§2) RU486- and Tamoxifen-inducible promoter constructs. 10×C7-TATA, 10×B3-TATA, and 10×N1-TATA fragments were assembled from two pairs of complementary oligonucleotides each and cloned into Sac1-Xma1 linearized pGL3-Basic (Promega), upstream of the firefly luciferase coding region, creating the plasmids 10×C7-TATA-luc, 10×B3-TATA-luc, and 10×N1-TATA-luc. To generate the 10×N1-TATA-lacZ reporter construct, the lacZ coding region was excised from pβgal-Basic (Clontech) and used to replace the luciferase coding region of 10×N1-TATA-luc via Hind3-BamH1 digestion. Luciferase and βP-gal reporter assays. […] Concomitant regulation of multiple promoters. Zinc finger technology has made a large repertoire of DNA binding specificities available for use in protein engineering [[…]., and Barbas, C. F., III (1998) Proc. Natl. Acad. Sci. USA 95, 14628-14633; […]., and Barbas, C. F., III (1999) Proc. Natl. Acad. Sci. USA 96, 2758-2763; […]., and Barbas, C. F., III (2000) Proc. Natl. Acad. Sci. USA 97, 1495-1500]. The availability of different steroid hormone receptor-derived regulatory domains [Littlewood, T. D., Hancock, […]., Parker, M. G., and Evan, G. I. (1995) Nucl. […] The transfected cells were treated with either RU486 or 4-OHT and the luciferase and β-gal activities were monitored.

[2] = test system: 10×N1-TATA-β-gal reporter (with B3-PR-VP16 and N1-ER-VP64) in HeLa cells; assay: Dual reporter assay, β-gal; assay type: cell-based; settings: HeLa cells expressing B3-PR-VP16 and N1-ER-VP64
Description: as §2

ER-VP64 (mouse) = ER-VP64 (mouse) (UniProt P19785); assay: cell-based or functional assay
[3] = test system: E2C-TATA-luciferase reporter plasmid carrying a single E2C binding site; assay: Luciferase reporter assay, E2C-TATA-luc in HeLa cells; assay type: cell-based; settings: 4-OHT
Protocol: A, structure of ER fusion proteins. E2C, six finger protein; L, flexible peptide linker. B, fusion proteins with a single ER-LBD bind as dimers. HeLa cells were cotransfected with a C7-ER-VP64 expression vector, and the indicated TATA luciferase reporter plasmids carrying either one or two C7 binding sites. 24 h after transfection, cells were either left untreated (−), or 100 nM 4-OHT was added (+). Luciferase activity in total cell extracts was measured 48 h after transfection. Each bar represents the mean value (+/−SD) of duplicate measurements. […] C, D, regulation of transcription through a single binding site by fusion proteins with two ER-LBDs. HeLa cells were cotransfected with the indicated expression vectors and the E2C-TATA-luciferase reporter plasmid, carrying a single E2C binding site upstream of a TATA box. 4-OHT induction and measurement of luciferase activity was carried out as described in B.
A, structure of single-chain RXR/EcR fusion proteins. B, regulation of transcription through a single binding site. HeLa cells were cotransfected with the indicated expression vectors and the E2C-TATA-luciferase reporter plasmid, carrying a single E2C binding site. 24 h after transfection, cells were either left untreated (−), or 5 μM Ponasterone A was added (+). Luciferase activity in total cell extracts was measured 48 h after transfection.
as §1
To overcome these problems, we produced two types of ER-based chimeric regulators, designed to be capable of regulating gene expression through a single binding site in a hormone-dependent manner. In the first strategy, a heterodimeric regulator was generated consisting of the engineered zinc finger protein E2C fused to an ER LBD, as well as an ER LBD fused to a VP64 activation domain (FIG. 2A). […] Addition of hormone led to a 3- to 5-fold stimulation of luciferase expression, indicating the formation of functional heterodimers. […]

Molecule	β-gal reporter gene activity (10×N1-TATA-β-gal) [2]	hormone-dependent activation of E2C-TATA-luc reporter [3]	further results
4-hydroxytamoxifen [4-OHT]	efficiently activated		crossreactivity between 4-OHT and PR (hPR (aa645-914) LBD): no detectable crossreactivity; also recorded: no detectable crossreaction; luciferase expression (10×B3-TATA-luc) [1]: did not affect
CC#C[C@]1(O)CC[C@H]2[C@@H]3CCC4=CC(=O)CCC4=C3[C@@H](c3ccc(N(C)C)cc3)C[C@@]21C [RU486, 11β-(4-dimethylaminophenyl)-17β-hydroxy-17α-propinyl-4,9-e stradiene-3-one]	no effect		
E2C-ER (from UniProt P19785 281-599)			luciferase expression from the E2C-TATA-luc reporter (single E2C site) in HeLa cells, stimulation by 4-OHT (ER-VP64 (mouse)): 3 to 5 fold
E2C-scER/18-VP64: single-chain fusion of E2C, two ER LBDs joined by 18 amino acid linker, VP64		efficiently activated	
E2C-scER/30-VP64: single-chain fusion of E2C, two ER LBDs joined by 30 amino acid linker, VP64		efficiently activated	
ER-VP64: ER LBD fused to a VP64 activation domain (protein, left off: large carriers) RNEMGASGDMRAANLWPSPLVIKHTKKNSPALSLTADQMVSALLDAEPPMIYSEYDPSRPFSEASMMGLLTNLADRELVHMINWAKRVPGFGDLNLHDQVHLLECAWLEILMIGLVWRSMEHPGKLLFAPNLLLDRNQGKCVEGMVEIFDMLLATSSRFRMMNLQGEEFVCLKSIILLNSGVYTFLSSTLKSLEEKDHIHRVLDKITDTLIHLMAKAGLTLQQQHRRLAQLLLILSHIRHMSNKRMEHLYNMKCKNVVPLYDLLLEMLDAHRLHAPASRMGVPPEEPSQTQLATTSSTSAHSLQTYYIPPEAEGFPNTI		inactive	
